Assay results published in article PMC9228641 (Journal of medicinal chemistry, 2021).
Where two headings read alike, the source gives them in different places.

Tests used:
[1] = test system: WT HCV Con1 (GT-1b) reporter replicon containing the H77 (GT-1a) NS3 protease region; assay: Antiviral replicon assay, WT HCV; type: cell-based, Hepatitis C virus; conditions: for fold improvement in antiviral activity against WT HCV: more active, relative to 36
HCV replicons = assay: Replicon assays, variant not given; type: cell-based, Hepatitis C virus; conditions: more potent than 38
[2] = test system: HCV replicon D168A variant; assay: microbe, parasite or virus in culture; conditions: Hepatitis C virus, Huh-7, 96 h, read-out: EC50 against D168A variant
[3] = test system: HCV replicon D168A variant
GT-3a NS3/4A protease = assay: Enzyme inhibition assay; type: biochemical, Hepatitis C virus; conditions: relative to 12
[4] = test system: HCV GT-3a replicon, S52/SG-Feo SHI; conditions: relative to 12
[5] = less active, compared to the (S)-stereoisomer 30

COc1ccc2nc(O[C@@H]3C[C@H]4C(=O)N[C@]5(C(=O)NS(=O)(=O)C6(C)CC6)C[C@H]5C=CCCCCC[C@H](NC(=O)OCC5(C)CC5(F)F)C(=O)N4C3)c(C(F)(F)F)nc2c1 (stereo in doubt) [Compound 41, (2,2-Difluoro-1-methylcyclopropyl)methyl ((2R,6S,13aS,14aR,16aS,Z)-2-((6-methoxy-3-(trifluoromethyl)quinoxalin-2-yl)oxy)-14a-(((1-methylcyclopropyl)sulfonyl)carbamoyl)-5,16-dioxo-1,2,3,5,6,7,8,9,10,11,13a,14,14a,15,16,16a-hexadecahydrocyclopropa[e]pyrrolo[1,2-a][1,4]diazacyclopentadecin-6-yl)carbamate]
fold improvement in antiviral activity against WT HCV [1]: 2 fold

COc1ccc2nc(O[C@@H]3C[C@H]4C(=O)N[C@]5(C(=O)NS(=O)(=O)C6(C)CC6)C[C@H]5C=CCCCCC[C@H](NC(=O)O[C@H](C)C(F)(F)F)C(=O)N4C3)c(C(F)(F)F)nc2c1 (stereo in doubt) [Compound 39, (R)-1,1,1-Trifluoropropan-2-yl ((2R,6S,13aS,14aR,16aS,Z)-2-((6-methoxy-3-(trifluoromethyl)quinoxalin-2-yl)oxy)-14a-(((1-methylcyclopropyl)sulfonyl)carbamoyl)-5,16-dioxo-1,2,3,5,6,7,8,9,10,11,13a,14,14a,15,16,16a-hexadecahydrocyclopropa[e]pyrrolo[1,2-a][1,4]diazacyclopentadecin-6-yl)carbamate]
fold more potent in replicon assays (HCV replicons): at least 2 fold

COc1ccc2nc(C)c(O[C@@H]3C[C@H]4C(=O)N[C@]5(C(=O)NS(=O)(=O)C6(C)CC6)C[C@H]5C=CCCCCC[C@H](NC(=O)O[C@@H](C)C(F)(F)F)C(=O)N4C3)nc2c1 (stereo in doubt) [Compound 13, (S)-1,1,1-Trifluoropropan-2-yl ((2R,6S,13aS,14aR,16aS,Z)-2-((7-methoxy-3-methylquinoxalin-2-yl)oxy)-14a-(((1-methylcyclopropyl)sulfonyl)carbamoyl)-5,16-dioxo1,2,3,5,6,7,8,9,10,11,13a,14,14a,15,16,16a-hexadecahydrocyclopropa[e]pyrrolo[1,2-a][1,4]diazacyclopentadecin-6-yl)carbamate]
EC50 [2]: < 10 nM

COc1ccc2nc(O[C@@H]3C[C@H]4C(=O)N[C@]5(C(=O)NS(=O)(=O)C6(C)CC6)C[C@H]5C=CCCCCC[C@H](NC(=O)OCC5(C(F)(F)F)CC5)C(=O)N4C3)c(C(F)(F)F)nc2c1 (stereo in doubt) [Compound 40, (1-(Trifluoromethyl)cyclopropyl)methyl ((2R,6S,13aS,14aR,16aS,Z)-2-((6-methoxy-3-(trifluoromethyl)quinoxalin-2-yl)oxy)-14a-(((1-methylcyclopropyl)sulfonyl)carbamoyl)-5,16-dioxo-1,2,3,5,6,7,8,9,10,11,13a,14,14a,15,16,16a-hexadecahydrocyclopropa[e]pyrrolo[1,2-a][1,4]diazacyclopentadecin-6-yl)carbamate]
fold improvement in antiviral activity against WT HCV [1]: 2 fold
fold more active against the D168A variant ([3]; more active, relative to 36): 2 fold

CCC(C)(C)OC(=O)N[C@H]1CCCCCC=C[C@@H]2C[C@@]2(C(=O)NS(=O)(=O)C2(C)CC2)NC(=O)[C@@H]2C[C@@H](Oc3nc4ccc(OC)cc4nc3C(F)(F)F)CN2C1=O (stereo in doubt) [Compound 28, tert-Pentyl ((2R,6S,13aS,14aR,16aS,Z)-2-((6-methoxy-3-(trifluoromethyl)quinoxalin-2-yl)oxy)-14a-(((1-methylcyclopropyl)sulfonyl)carbamoyl)-5,16-dioxo-1,2,3,5,6,7,8,9,10,11,13a,14,14a,15,16,16a-hexadecahydrocyclopropa[e]pyrrolo[1,2-a][1,4]diazacyclopentadecin-6-yl)carbamate]
fold lower antiviral activity against the D168A variant ([3]; lower, relative to 3): 2 fold

COc1ccc2nc(C)c(O[C@@H]3C[C@H]4C(=O)N[C@]5(C(=O)NS(=O)(=O)C6(C)CC6)C[C@H]5C=CCCCCC[C@H](NC(=O)OC(C)(C)C(F)(F)F)C(=O)N4C3)nc2c1 (stereo in doubt) [Compound 12, 1,1,1-Trifluoro-2-methylpropan-2-yl ((2R,6S,13aS,14aR,16aS,Z)-2-((7-methoxy-3-methylquinoxalin-2-yl)oxy)-14a-(((1-methylcyclopropyl)sulfonyl)carbamoyl)-5,16-dioxo-1,2,3,5,6,7,8,9,10,11,13a,14,14a,15,16,16a-hexadecahydrocyclopropa[e]pyrrolo[1,2-a][1,4]diazacyclopentadecin-6-yl)carbamate]
EC50 ([1]; Hepatitis C virus, GT1A|GT1B, Huh-7, 96 h, read-out: EC50 against WT HCV): < 5 nM
EC50 [2]: < 5 nM

COc1ccc2nc(C)c(O[C@@H]3C[C@H]4C(=O)N[C@]5(C(=O)NS(=O)(=O)C6(C)CC6)C[C@H]5C=CCCCCC[C@H](NC(=O)O[C@H](C)C(F)(F)F)C(=O)N4C3)nc2c1 (stereo in doubt) [Compound 14, (R)-1,1,1-Trifluoropropan-2-yl ((2R,6S,13aS,14aR,16aS,Z)-2-((7-methoxy-3-methylquinoxalin-2-yl)oxy)-14a-(((1-methylcyclopropyl)sulfonyl)carbamoyl)-5,16-dioxo-1,2,3,5,6,7,8,9,10,11,13a,14,14a,15,16,16a-hexadecahydrocyclopropa[e]pyrrolo[1,2-a][1,4]diazacyclopentadecin-6-yl)carbamate]
fold better potency against the D168A variant ([3]; relative to 13): 2 fold

COc1ccc2nc(O[C@@H]3C[C@H]4C(=O)N[C@]5(C(=O)NS(=O)(=O)C6(C)CC6)C[C@H]5C=CCCCCC[C@H](NC(=O)OC5(C(F)(F)F)CCCC5)C(=O)N4C3)c(C(F)(F)F)nc2c1 (stereo in doubt) [Compound 48, 1-(Trifluoromethyl)cyclopentyl ((2R,6S,13aS,14aR,16aS,Z)-2-((6-methoxy-3-(trifluoromethyl)quinoxalin-2-yl)oxy)-14a-(((1-methylcyclopropyl)sulfonyl)carbamoyl)-5,16-dioxo-1,2,3,5,6,7,8,9,10,11,13a,14,14a,15,16,16a-hexadecahydrocyclopropa[e]pyrrolo[1,2-a][1,4]diazacyclopentadecin-6-yl)carbamate]
fold better potency against the D168A variant ([3]; compared to 42): 3 fold

COc1ccc2nc(C)c(O[C@@H]3C[C@H]4C(=O)N[C@]5(C(=O)NS(=O)(=O)C6(C)CC6)C[C@H]5C=CCCCCC[C@H](NC(=O)OC5(C(F)(F)F)CCCC5)C(=O)N4C3)nc2c1 (stereo in doubt) [Compound 24, 1-(Trifluoromethyl)cyclopentyl ((2R,6S,13aS,14aR,16aS,Z)-2-((7-methoxy-3-methylquinoxalin-2-yl)oxy)-14a-(((1-methylcyclopropyl)sulfonyl)carbamoyl)-5,16-dioxo-1,2,3,5,6,7,8,9,10,11,13a,14,14a,15,16,16a-hexadecahydrocyclopropa[e]pyrrolo[1,2-a][1,4]diazacyclopentadecin-6-yl)carbamate]
fold improvement in potency against the D168A variant, replicon assay ([3]; improvement, relative to the parent 18): 2 fold

COc1ccc2nc(C)c(O[C@@H]3C[C@H]4C(=O)N[C@]5(C(=O)NS(=O)(=O)C6(C)CC6)C[C@H]5/C=C/CCCCC[C@H](NC(=O)OC5C[C@@H]6C[C@@H]6C5)C(=O)N4C3)nc2c1 (some centres unmarked) [Compound 20]
EC50 [2]: 0.5 nM

COc1ccc2nc(O[C@@H]3C[C@H]4C(=O)N[C@]5(C(=O)NS(=O)(=O)C6(C)CC6)C[C@H]5C=CCCCCC[C@H](NC(=O)O[C@H](C)C(C)C)C(=O)N4C3)c(C(F)(F)F)nc2c1 (stereo in doubt) [Compound 31, (R)-3-Methylbutan-2-yl ((2R,6S,13aS,14aR,16aS,Z)-2-((6-methoxy-3-(trifluoromethyl)quinoxalin-2-yl)oxy)-14a-(((1-methylcyclopropyl)sulfonyl)carbamoyl)-5,16-dioxo-1,2,3,5,6,7,8,9,10,11,13a,14,14a,15,16,16a-hexadecahydrocyclopropa[e]pyrrolo[1,2-a][1,4]diazacyclopentadecin-6-yl)carbamate]
fold less active against WT replicon [1, 5]: 2 fold
fold less active against D168A replicon [3, 5]: 2 fold

COc1ccc2nc(C)c(O[C@@H]3C[C@H]4C(=O)N[C@]5(C(=O)NS(=O)(=O)C6(C)CC6)C[C@H]5/C=C/CCCCC[C@H](NC(=O)OC5CCC5)C(=O)N4C3)nc2c1 [Compound 21]
EC50 [2]: < 5 nM

COc1ccc2nc(C)c(O[C@@H]3C[C@H]4C(=O)N[C@]5(C(=O)NS(=O)(=O)C6(C)CC6)C[C@H]5C=CCCCCC[C@H](NC(=O)OCC5(C(F)(F)F)CC5)C(=O)N4C3)nc2c1 (stereo in doubt) [Compound 15, (1-(Trifluoromethyl)cyclopropyl)methyl ((2R,6S,13aS,14aR,16aS,Z)-2-((7-methoxy-3-methylquinoxalin-2-yl)oxy)-14a-(((1-methylcyclopropyl)sulfonyl)carbamoyl)-5,16-dioxo-1,2,3,5,6,7,8,9,10,11,13a,14,14a,15,16,16a-hexadecahydrocyclopropa[e]pyrrolo[1,2-a][1,4]diazacyclopentadecin-6-yl)carbamate]
fold lower activity against GT-3a, enzyme assay (GT-3a NS3/4A protease): 2 fold
fold lower activity against GT-3a, replicon assay [4]: 2 fold
